Source: article PMC11013662, “New Thiosemicarbazide Derivatives with Multidirectional Biological Action” (Molecules, 2024)
Values after ≈ are worked out from the molar mass of the structure shown. Values joined by “and” are separate entries in the source; they are usually repeats but may differ in a detail not shown here. Identical values can stand only once.

How the values were obtained:
[1] = system: V79 Chinese hamster lung cells; assay: MTT cytotoxicity assay; format: cell-based; conditions: Cricetulus griseus, V 79 normal cells, 72 h
Method: Both lines were obtained from American Type Culture Collection (ATCC, Rockville, MD, USA). The culture used to grow the SW 620 cells was prepared in MEM (ThermoSci, Waltham, MA, USA). The V79 cells were cultured in RPMI (Biowest SAS, Nuaillé, France) with the addition of 20 mM HEPES (Biowest, Nuaillé, France), 10% fetal bovine serum (FBS, Sigma-Aldrich, St. Louis, MO, USA), 100 µg/mL of streptomycin, and 100 U/mL of penicillin (Gibco, Grand Island, NY, USA). The eligible level of cells confluence was 80–90%, and both cell cultures were maintained in a humidified incubator set at 37 °C with 5% CO2 until they reached it.
The MTT assay was used to establish the cytotoxic activity of the studied compounds. The mechanism of this method relies on enzymatic conversion of 3-(4,5-dimethylthiazol-2-yl)-2,5-diphentyltetrazolium bromide salt (MTT) into insoluble formazan crystals by mitochondrial dehydrogenases within viable cells.
The process starts with the preparation of 96-well plates by placing cells at a density of 1 × 10^4 per well and incubating them for 24 h to adhere. Afterwards, the cells were treated with different concentrations of thiosemicarbazide derivatives, from 20 to 100 µM, except the control group which remained not exposed. Next, cells were incubated for 72 h at 37 °C with a 5% CO2. Then, a solution of MTT (0.5 mg/mL) was added to each well and plates were incubated for 4 h more in the same conditions.
To dissolve precipitated formazan crystals, a mixture of DMSO and isopropanol (in a 1:1 ratio, v/v) was used. For the spectrophotometric survey, we used MultiscanGo from Thermo Scientific with the wavelength value set at 570 nm to measure absorbance.
Cell viability was determined as the percentage of MTT reduction in the treated cells compared to the control group (unexposed cells). The relative MTT level, represented as a percentage, was calculated using the formula [A]/[B] × 100, where [A] stands for the absorbance of the treated cell sample and [B] for the absorbance of unexposed to studied compounds sample (control group). […] To calculate IC50 values (concentration at which 50% of cell viability is inhibited), we used GraphPad Prism 8.0.1 software.

[2] = system: lipid oxidation stimulated by iron (II) ions in rat brain homogenate; assay: Antioxidant activity: MDA from iron(II)-stimulated lipid oxidation in brain homogenate; format: biochemical; conditions: 10 μM compound; for MDA: 0.1% FeCl2 and 1 mM ascorbic acid, 1 h 37 °C; for Antioxidative Potential Value: reduction of MDA vs control sample
Method: The antioxidant potential of the newly synthesized derivatives was assessed based on the analysis of the malondialdehyde (MDA) concentration formed as a product of lipid oxidation stimulated by iron (II) ions.
The antioxidant activity of the tested compounds was measured in the brain homogenate of intact rats bred at the Central Laboratory of Experimental Animals of the Medical University of Warsaw. Brains were collected according to procedure no. 3R. A 10% (m/v) rat brain solution was obtained by homogenizing freshly prepared brain washed with cold 0.9% NaCl in cold 10 mM TRIS-HCl buffer, with pH = 7.5. The homogenate was centrifuged at 4 °C (2000 rpm) to obtain supernatant 1 [54, 60]. Sample preparation was as follows: 100 μM stock solutions of test compounds in DMSO were added to […] of supernatant 1 to a final concentration of 10 μM. The reference sample contained brain homogenate supernatant and DMSO.
Freshly prepared solutions of 0.1% FeCl2 (0.2 mL) and 1 mM ascorbic acid (0.4 mL) were added to all samples to initiate the oxidation reaction. Samples were incubated for 1 h at 37 °C. Then, 8.1% sodium dodecyl sulfate (SDS) solution was added to inhibit the oxidation reaction. Acetate buffer (pH = 3.4) and 0.8% thiobarbituric acid (TBA) solution (pH = 6) were added to each sample to determine the concentration of malondialdehyde (MDA). The samples were incubated for 1 h at 100 °C, then cooled on ice and centrifuged (10 min, 4000 rpm). The absorbance was measured at a wavelength of 532 nm against a blank sample (acetate buffer with TBA solution).
Calculation of malondialdehyde (MDA) concentration was performed as follows: MDA concetration=∆ A532 nm×1.56×10^−6 [nmol MDA/h/g tissue]

[3] = system: Rhabditis sp.; assay: Anthelmintic activity assay on nematode culture; format: cell-based; conditions: 24 h exposure
Method: All compounds in the anthelmintic activity study were prepared in the form of a homogeneous suspension. The anthelmintic activity was tested according to the procedure developed by Bogucka-Kock and Kołodziej. The tested compounds were added to the culture of Rhabditis sp. at experimentally determined concentrations. […] LC50 values (lethal concentration) were determined for two active substances. It was defined as the amount of the substance causing the death of 50% of nematodes.

Compound | IC50 [1] [µM] | MDA [2] [mM × 10^−3] | Antioxidative Potential Value [2] | LC50 [3] [µg/mL] | melting point [°C]
O=C(NNC(=S)Nc1cccc(Cl)c1)c1cccc(C(F)(F)F)c1 [Compound 3a, 4-(3-Chlorophenyl)-1-(3-trifluoromethylbenzoyl)thiosemicarbazide] | 40.5 ± 3.83 | 1.395 ± 0.232 | 48.3% | 14800 (≈ 39.5 mM) | –
O=C(NNC(=S)Nc1cccc(F)c1)c1cccc(C(F)(F)F)c1 [Compound 3e, 1-(3-Trifluoromethylbenzoyl)-4-(3-fluorophenyl)thiosemicarbazide] | > 100 | 1.274 ± 0.121 | 52.8% | – | 174.4
FC(F)(F)c1cccc(-c2n[nH]c(=S)n2-c2cccc(Cl)c2)c1 [Compound 4, 4-(3-Chlorophenyl)-5-(3-trifluoromethylphenyl)-2,4-dihydro-3H-1,2,4-triazole-3-thione] | > 100 | 2.022 ± 0.121 | 25.1% | 370 (≈ 1.04 mM) | –
CCCCNC(=S)NNC(=O)c1cccc(C(F)(F)F)c1 [Compound 3c, 4-Butyl-1-(3-trifluoromethylbenzoyl)thiosemicarbazide] | > 100 | 1.773 ± 0.077 | 34.3% | – | 161.6
COc1cccc(NC(=S)NNC(=O)c2cccc(C(F)(F)F)c2)c1 [Compound 3b, 1-(3-Trifluoromethylbenzoyl)-4-(3-methoxyphenyl)thiosemicarbazide] | > 100 | 1.703 ± 0.177 | 36.9% | – | 181.3
O=C(NNC(=S)Nc1ccccc1)c1cccc(C(F)(F)F)c1 [Compound 3f, 1-(3-Trifluoromethylbenzoyl)-4-(phenyl)thiosemicarbazide] | > 100 | 1.450 ± 0.006 | 46.3% | – | 176.4
Cc1cccc(NC(=S)NNC(=O)c2cccc(C(F)(F)F)c2)c1 [Compound 3d, 1-(3-Trifluoromethylbenzoyl)-4-(3-methylphenyl)thiosemicarbazide] | 69.1 ± 5.45 | 1.320 ± 0.143 | 50.1% and 51.1% | – | 230.7
